According to the supplement of paper PMC8372320:
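Further: aromatic molecules in triethylamine/methanol/water with Pt photoreduced in situ, irradiated 3 h under a 1 sun AM 1.5G solar simulator (350–1000 nm), H2 quantified by headspace gas chromatography; listed molecule itself used as the photocatalyst at 5 mg per vial.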

Assay: photocatalytic hydrogen evolution rate (per 5 mg catalyst); higher = more photocatalytic H2 evolution; extreme values may be limits of the assay
Conditions: catalyst mass (mg): 5; Pt cocatalyst (wt%): 3; sacrificial medium: triethylamine/methanol/water 1:1:1
For N#Cc1cc(C#N)ncn1, the “photocatalytic hydrogen evolution rate” value was 0 µmol/h.
For C#Cc1ccccc1C#N, the “photocatalytic hydrogen evolution rate” value was 0 µmol/h.
With CCn1c2ccccc2c2cc(C=O)ccc21 the “photocatalytic hydrogen evolution rate” value was 2.45 µmol/h.
In the case of O=C1C=C(O)C(=O)C=C1O, the “photocatalytic hydrogen evolution rate” value is reported as 0 µmol/h.
With N#CCC(=O)c1ccc(Br)cc1 the “photocatalytic hydrogen evolution rate” value was 0 µmol/h.
For N#Cc1ccncc1Br, the “photocatalytic hydrogen evolution rate” value was 0 µmol/h.
For OCCCCc1ccc2ccc3cccc4ccc1c2c34, the “photocatalytic hydrogen evolution rate” value was 0.855 µmol/h.
For Brc1cc(Br)c2[nH]c3c(Br)cc(Br)cc3c2c1, the “photocatalytic hydrogen evolution rate” value was 0.128 µmol/h.
For CN1CCN(c2ccc(C=O)cc2)CC1, the “photocatalytic hydrogen evolution rate” value was 0.409 µmol/h.
With N#Cc1c(F)c(F)nc(F)c1F the “photocatalytic hydrogen evolution rate” value was 0.00201 µmol/h.
With O=Cc1c2ccccc2c(C=O)c2ccccc12 the “photocatalytic hydrogen evolution rate” value was 2.97 µmol/h.
With c1ccc(-c2ccccc2)cc1 the “photocatalytic hydrogen evolution rate” value was 0 µmol/h.
With Oc1cc2c3cc(O)c(O)cc3c3cc(O)c(O)cc3c2cc1O the “photocatalytic hydrogen evolution rate” value was 0.155 µmol/h.
With COc1cc(Br)c(OC)cc1Br the “photocatalytic hydrogen evolution rate” value was 0 µmol/h.
In the case of CC(C)(C)c1ccc(Nc2ccc(Nc3ccc(C(C)(C)C)cc3)c3c2C(=O)c2c(O)ccc(O)c2C3=O)cc1, the “photocatalytic hydrogen evolution rate” value is reported as 0 µmol/h.
In the case of Oc1c(Br)cc(Br)c(O)c1Br, the “photocatalytic hydrogen evolution rate” value is reported as 0 µmol/h.
For Brc1ccc(N(c2ccccc2)c2ccc(Br)cc2)cc1, the “photocatalytic hydrogen evolution rate” value was 0.729 µmol/h.
In the case of Cc1ccc(-c2ccc(C)cc2)cc1, the “photocatalytic hydrogen evolution rate” value is reported as 0 µmol/h.
With Cc1cc(C)cc([N+](=O)[O-])c1 the “photocatalytic hydrogen evolution rate” value was 0 µmol/h.
In the case of Brc1nnc(Br)s1, the “photocatalytic hydrogen evolution rate” value is reported as 0 µmol/h.
For C1=Cc2cccc3cccc1c23, the “photocatalytic hydrogen evolution rate” value was 0 µmol/h.
In the case of O=C1C=CC(=O)c2cc3ccccc3cc21, the “photocatalytic hydrogen evolution rate” value is reported as 0 µmol/h.
For Oc1ccc2c(c1)Oc1cc(O)ccc1C21c2ccccc2-c2ccccc21, the “photocatalytic hydrogen evolution rate” value was 0 µmol/h.
For Cc1cc(C)c(Nc2ccc(Nc3c(C)cc(C)cc3C)c3c2C(=O)c2ccccc2C3=O)c(C)c1, the “photocatalytic hydrogen evolution rate” value was 0.331 µmol/h.
In the case of CC(=O)c1ccc([N+](=O)[O-])cc1, the “photocatalytic hydrogen evolution rate” value is reported as 0 µmol/h.
With O=c1c2ccccc2n(-c2ccccc2)c2ccccc12 the “photocatalytic hydrogen evolution rate” value was 3.33 µmol/h.
For C1=CSC(=C2SC=CS2)S1, the “photocatalytic hydrogen evolution rate” value was 0 µmol/h.
In the case of Brc1ccc2ccccc2c1-c1c(Br)ccc2ccccc12, the “photocatalytic hydrogen evolution rate” value is reported as 0 µmol/h.
With O=Cc1cc(Br)ccc1Br the “photocatalytic hydrogen evolution rate” value was 0.957 µmol/h.
For COc1ccc(OC)c(C=O)c1, the “photocatalytic hydrogen evolution rate” value was 10.9 µmol/h.
With Brc1ccc2c(c1)Cc1cc(Br)ccc1-2 the “photocatalytic hydrogen evolution rate” value was 0 µmol/h.
For Nc1cc(C(=O)O)cc(C(=O)O)c1, the “photocatalytic hydrogen evolution rate” value was 0 µmol/h.
In the case of Brc1cc(Br)cc(-c2ccccc2)c1, the “photocatalytic hydrogen evolution rate” value is reported as 0 µmol/h.
For Brc1ccc2cc(Br)ccc2c1, the “photocatalytic hydrogen evolution rate” value was 0 µmol/h.
In the case of Nc1ccccc1C(=O)O, the “photocatalytic hydrogen evolution rate” value is reported as 0.00138 µmol/h.
For COc1ccc(OC)cc1, the “photocatalytic hydrogen evolution rate” value was 0 µmol/h.
With O=C1C(Br)=C(Br)C(=O)C(Br)=C1Br the “photocatalytic hydrogen evolution rate” value was 0 µmol/h.
In the case of O=Cc1ccccc1C=O, the “photocatalytic hydrogen evolution rate” value is reported as 0.491 µmol/h.
For N#Cc1cccc(C#N)c1, the “photocatalytic hydrogen evolution rate” value was 0 µmol/h.
In the case of O=Cc1ccc(-n2ccnc2)cc1, the “photocatalytic hydrogen evolution rate” value is reported as 1.5 µmol/h.
With O=Cc1ccc(C=O)c([N+](=O)[O-])c1 the “photocatalytic hydrogen evolution rate” value was 0 µmol/h.
For Clc1ccc2ccc(Cl)nc2n1, the “photocatalytic hydrogen evolution rate” value was 0.122 µmol/h.
With N#Cc1csc(Br)n1 the “photocatalytic hydrogen evolution rate” value was 0 µmol/h.
In the case of O=C1c2ccccc2-c2ccccc21, the “photocatalytic hydrogen evolution rate” value is reported as 2.56 µmol/h.
With O=Cc1ccc(-c2ccc(C=O)s2)s1 the “photocatalytic hydrogen evolution rate” value was 1.18 µmol/h.
For C#Cc1ccc(C(=O)O)cc1, the “photocatalytic hydrogen evolution rate” value was 0 µmol/h.
In the case of COc1cc(C=O)cc(OC)c1O, the “photocatalytic hydrogen evolution rate” value is reported as 0 µmol/h.
With N#Cc1ccc(Br)c(F)c1 the “photocatalytic hydrogen evolution rate” value was 0 µmol/h.
For Brc1ccc(-c2ccc(Br)cn2)nc1, the “photocatalytic hydrogen evolution rate” value was 0.0242 µmol/h.
With O=Cc1sc(C=O)c(Br)c1Br the “photocatalytic hydrogen evolution rate” value was 0.167 µmol/h.
For OC1c2ccccc2-c2ccccc21, the “photocatalytic hydrogen evolution rate” value was 0 µmol/h.
For c1ccc2c(c1)ccc1ccccc12, the “photocatalytic hydrogen evolution rate” value was 0.057 µmol/h.
With c1ccc(C(c2ccccc2)(c2ccccc2)c2ccccc2)cc1 the “photocatalytic hydrogen evolution rate” value was 0 µmol/h.
With CCOC(=O)c1nc(C(=O)OCC)nc(C(=O)OCC)n1 the “photocatalytic hydrogen evolution rate” value was 0.00108 µmol/h.
In the case of N#Cc1cc(C#N)c(C#N)cc1C#N, the “photocatalytic hydrogen evolution rate” value is reported as 0 µmol/h.
In the case of c1csc(-c2ccc(N(c3ccc(-c4cccs4)cc3)c3ccc(-c4cccs4)cc3)cc2)c1, the “photocatalytic hydrogen evolution rate” value is reported as 0 µmol/h.
With O=Cc1cc(Br)nc(Br)c1 the “photocatalytic hydrogen evolution rate” value was 0.107 µmol/h.
With c1csc(-c2ccc(-c3cccs3)c3nsnc23)c1 the “photocatalytic hydrogen evolution rate” value was 0.84 µmol/h.
In the case of Nc1c(Br)ccc(Br)c1N, the “photocatalytic hydrogen evolution rate” value is reported as 0 µmol/h.
With O=Cc1ccc2nccnc2c1 the “photocatalytic hydrogen evolution rate” value was 0 µmol/h.
In the case of N#Cc1c(Cl)c(Cl)c(C#N)c(Cl)c1Cl, the “photocatalytic hydrogen evolution rate” value is reported as 1.44 µmol/h.
For C1=Cc2nc1c(-c1ccccc1)c1ccc([nH]1)c(-c1ccccc1)c1nc(c(-c3ccccc3)c3ccc([nH]3)c2-c2ccccc2)C=C1, the “photocatalytic hydrogen evolution rate” value was 1.32 µmol/h.
For Brc1ccc2c(c1)C1(c3ccccc3-c3ccccc31)c1cc(Br)ccc1-2, the “photocatalytic hydrogen evolution rate” value was 0 µmol/h.
For N#Cc1c2ccccc2cc2ccccc12, the “photocatalytic hydrogen evolution rate” value was 0.294 µmol/h.
For O=Cc1cc(O)cc(Cl)c1, the “photocatalytic hydrogen evolution rate” value was 0.000189 µmol/h.
In the case of CC(=O)c1ccc(-c2ccc(C(C)=O)cc2)cc1, the “photocatalytic hydrogen evolution rate” value is reported as 3.67 µmol/h.
With O=C(O)c1cc(Br)ccc1Br the “photocatalytic hydrogen evolution rate” value was 0 µmol/h.
With N#Cc1cc(Br)c[nH]c1=O the “photocatalytic hydrogen evolution rate” value was 1.99 µmol/h.
With O=C1c2cccc([N+](=O)[O-])c2C(=O)c2c1cccc2[N+](=O)[O-] the “photocatalytic hydrogen evolution rate” value was 0 µmol/h.
For c1cn[nH]c1, the “photocatalytic hydrogen evolution rate” value was 0 µmol/h.
In the case of c1ccc(-c2ccc(-c3ccc(-c4ccccc4)cc3)cc2)cc1, the “photocatalytic hydrogen evolution rate” value is reported as 0 µmol/h.
With Nc1ccc2c(c1)C(=O)c1ccc(N)cc1C2=O the “photocatalytic hydrogen evolution rate” value was 0.006 µmol/h.
With COc1cc(Br)cc(OC)c1 the “photocatalytic hydrogen evolution rate” value was 0.0348 µmol/h.
For N#Cc1cc(N)ccc1Cl, the “photocatalytic hydrogen evolution rate” value was 0 µmol/h.
With CCc1cc(C#N)ccc1C#N the “photocatalytic hydrogen evolution rate” value was 0 µmol/h.
In the case of Nc1ccccc1-c1ccccc1, the “photocatalytic hydrogen evolution rate” value is reported as 0 µmol/h.
For Nc1ccc(N)cc1, the “photocatalytic hydrogen evolution rate” value was 0 µmol/h.
In the case of O=C1c2ccc(O)cc2C(=O)c2ccc(O)cc21, the “photocatalytic hydrogen evolution rate” value is reported as 2.69 µmol/h.
For N#Cc1ccc(C=O)cc1F, the “photocatalytic hydrogen evolution rate” value was 0.104 µmol/h.
In the case of Brc1ccc(C(c2ccc(Br)cc2)(c2ccc(Br)cc2)c2ccc(Br)cc2)cc1, the “photocatalytic hydrogen evolution rate” value is reported as 0.0679 µmol/h.
With N#CCc1ccc(C#N)cc1 the “photocatalytic hydrogen evolution rate” value was 0 µmol/h.
In the case of N#Cc1ccc(-c2ccc(N)nc2)cc1, the “photocatalytic hydrogen evolution rate” value is reported as 0.0826 µmol/h.
For Nc1ccc(-c2nnc(-c3ccc(N)cc3)nn2)cc1, the “photocatalytic hydrogen evolution rate” value was 0 µmol/h.
For N#CCc1ccccc1CC#N, the “photocatalytic hydrogen evolution rate” value was 0 µmol/h.
With N#Cc1cc(N)c(N)cc1C#N the “photocatalytic hydrogen evolution rate” value was 0 µmol/h.
With O=Cc1cc(C=O)cc(C=O)c1 the “photocatalytic hydrogen evolution rate” value was 0.0923 µmol/h.
In the case of N#Cc1ccc(/C=C/c2ccc(/C=C/c3ccc(C#N)cc3)cc2)cc1, the “photocatalytic hydrogen evolution rate” value is reported as 0.411 µmol/h.
For N#Cc1ccc2ccc(C#N)cc2c1, the “photocatalytic hydrogen evolution rate” value was 0.0489 µmol/h.
For Cc1cc(Br)cc(Br)c1, the “photocatalytic hydrogen evolution rate” value was 0 µmol/h.
In the case of c1cncc(-c2nc(-c3cccnc3)nc(-c3cccnc3)n2)c1, the “photocatalytic hydrogen evolution rate” value is reported as 0.168 µmol/h.
For COc1ccc(C=O)cc1O, the “photocatalytic hydrogen evolution rate” value was 0 µmol/h.
In the case of COC(=O)c1ccc(C#N)cc1, the “photocatalytic hydrogen evolution rate” value is reported as 0 µmol/h.
For C#Cc1ccc(C#N)cc1, the “photocatalytic hydrogen evolution rate” value was 0 µmol/h.
For c1ccc(-c2cc(-c3ccccc3)nc(-c3ccccc3)c2)cc1, the “photocatalytic hydrogen evolution rate” value was 0 µmol/h.
In the case of OB(O)c1ccc(-c2ccc(B(O)O)cc2)cc1, the “photocatalytic hydrogen evolution rate” value is reported as 0 µmol/h.
In the case of CCOC(=O)c1ccc(C(=O)OCC)cc1, the “photocatalytic hydrogen evolution rate” value is reported as 0 µmol/h.
In the case of O=Cc1ccc(S(=O)(=O)c2ccccc2)cc1, the “photocatalytic hydrogen evolution rate” value is reported as 0.0425 µmol/h.
For Nc1ccc2ccc3cccc4ccc1c2c34, the “photocatalytic hydrogen evolution rate” value was 0 µmol/h.
For c1ncncn1, the “photocatalytic hydrogen evolution rate” value was 0 µmol/h.
For N#Cc1c(-n2c3ccccc3c3ccccc32)c(-n2c3ccccc3c3ccccc32)cc(-n2c3ccccc3c3ccccc32)c1-n1c2ccccc2c2ccccc21, the “photocatalytic hydrogen evolution rate” value was 1.65 µmol/h.
For O=Cc1ccc(N(c2ccccc2)c2ccc(C=O)cc2)cc1, the “photocatalytic hydrogen evolution rate” value was 1.17 µmol/h.
In the case of Fc1c(I)ccc(I)c1F, the “photocatalytic hydrogen evolution rate” value is reported as 0 µmol/h.
With Nc1ccc(C(=O)O)cc1 the “photocatalytic hydrogen evolution rate” value was 0.059 µmol/h.
For Cc1cccc(N(c2ccc(C=O)cc2)c2cccc(C)c2)c1, the “photocatalytic hydrogen evolution rate” value was 0.245 µmol/h.
With O=C1C=CC(=O)N1c1ccccc1 the “photocatalytic hydrogen evolution rate” value was 0 µmol/h.
In the case of N#Cc1cc(F)c(F)c(F)c1F, the “photocatalytic hydrogen evolution rate” value is reported as 0 µmol/h.
In the case of Brc1ccc(Br)c2nonc12, the “photocatalytic hydrogen evolution rate” value is reported as 0 µmol/h.
